Measured values: publication PMC6057649, “Development of NanoLuc-PEST expressing Leishmania mexicana as a new drug discovery tool for axenic- and intramacrophage-based assays” (PLoS Neglected Tropical Diseases, 2018)

Test system: NanoLuc-PEST expressing L. mexicana axenic amastigotes
Test: microbe, parasite or virus in culture
Assay type: cell-based
Details: for Relative Bioluminescence (%) / viability at 2 µM / viability at 10 µM: 72 hours, relative to DMSO only control, n = 4; for viability at 2 µM / viability at 10 µM: Leishmania mexicana, read-out: Relative Bioluminescence (%); for EC50: hit compounds from the axenic amastigote screen, S3 Table, read-out: EC50, Axenic Amastigotes

SMILES | Relative Bioluminescence (%) (2 µM compound) | Relative Bioluminescence (%) (10 µM compound) | viability at 2 µM (2 µM compound) [%] | viability at 10 µM (10 µM compound) [%] | EC50 [nM]
CCOc1ccc(-c2nc(CNCCc3ccc(F)cc3)cs2)cc1 [MMV688938] | 63.80 | 76.80 |  |  | 
Nc1ccc2ncnc(Nc3ccc(OCc4cccc(F)c4)c(Cl)c3)c2c1 [MMV688273] | 63.86 | 0.09 |  |  | 
Cc1ccc2oc(-c3cc(NC(=O)Cc4ccccc4)ccc3Cl)nc2c1 [MMV676509] | 92.05 | 59.65 |  |  | 
c1ccc(-c2[nH]c3ccccc3c2C(c2ccccn2)N2CCCC2)cc1 (stereo not shown) [MMV688762] | 73.33 | 84.34 |  |  | 
NS(=O)(=O)c1cncc(-c2ccc3nccc(-c4cn[nH]c4)c3n2)c1 [MMV024101] | 98.92 | 49.51 |  |  | 
NCC[C@H](O)C(=O)N[C@@H]1C[C@H](N)[C@@H](O[C@H]2O[C@H](CN)[C@@H](O)[C@H](O)[C@H]2O)[C@H](O)[C@H]1O[C@H]1O[C@H](CO)[C@@H](O)[C@H](N)[C@H]1O [MMV687796, Amikacin, reference compound] |  |  | 79.3 | 58.2 | 
CC1(C)OB(O)c2ccc(C3=NOC(c4cc(Cl)c(F)c(Cl)c4)(C(F)(F)F)C3)cc21 (stereo not shown) [MMV687775] | 54.77 | 7.40 |  |  | 
COc1cc(OC)cc(C(=O)NCC2Cc3cc(Cl)cc(-c4ccncc4)c3O2)c1 (stereo not shown) [MMV007471] | 87.80 | 69.68 |  |  | 
COc1ccc(CN2CCOc3ccc(C(C)(O)CN(C)C)cc3C2)cc1C (stereo not shown) [MMV008439] | 83.20 | 126.81 |  |  | 
CNC(=O)c1cc(S(=O)(=O)N2CCN(c3ccccn3)CC2)cs1 [MMV020136] | 108.03 | 122.06 |  |  | 
CC1(O)CC(c2nc(-c3ccc4ccc(-c5ccccc5)nc4c3)c3c(N)nccn23)C1 (stereo not shown) [MMV676605] | 81.06 | 84.63 |  |  | 
O=C(Nc1ccc(N2CCNCC2)cc1)c1ccn2ncc(-c3cccc(Cl)c3)c2n1 [MMV022478] | 88.45 | 5.54 |  |  | 
CC(C)/N=c1\cc2n(-c3ccc(Cl)cc3)c3ccccc3nc-2cc1Nc1ccc(Cl)cc1 [MMV687800, Clofazimine, reference compound] |  |  | 41.1 | 37.9 | 
NCCN(C(=O)c1ccc(Cl)cc1Cl)c1ccc(OCc2ccc(Cl)cc2)cc1 [MMV688371] | 95.57 | 61.94 |  |  | 
O=C(NC1CC1)c1ccc(N2CCC(Cc3ccccc3)CC2)nc1 [MMV024397] | 92.24 | 86.39 |  |  | 
COc1ccc(N(CCc2cccc(C)n2)C(C)=O)cc1 [MMV675995] | 51.88 | 31.11 |  |  | 
CCOC(=O)c1noc(N)c1-c1ccccc1 [MMV1236379] | 77.18 | 52.39 |  |  | 
CN1CCN(S(=O)(=O)c2ccc(-c3ccc4c(Nc5ncc(Cl)cn5)ccnc4c3)cc2)CC1 [MMV688283] | 58.40 | 101.72 |  |  | 
Cc1cc(NCCc2ccccc2)nc(NC(=N)Nc2ccc(Cl)cc2)n1 [MMV021660] | 89.16 | 56.67 |  |  | 
Cc1cc(NCC(C)C)c2[nH]nc(-c3ccccc3)c2n1 [MMV021375] | 68.90 | 58.94 |  |  | 

SMILES | Relative Bioluminescence (%) (2 µM compound) | Relative Bioluminescence (%) (10 µM compound) | viability at 2 µM (2 µM compound) [%] | viability at 10 µM (10 µM compound) [%] | EC50 [nM]
COc1cccc(-n2nnnc2S(=O)(=O)Cc2ccccc2)c1 [MMV676388] | 0.56 | 0.16 |  |  | 730
CC(C)(C)c1cc(C(=O)N2CCN(c3nccnc3C#N)CC2)n(Cc2ccccc2)n1 [MMV023949] | 80.37 | 52.45 |  |  | 
CN1CCC(c2cc(-c3ccncc3)c(-c3ccc(F)cc3)[nH]2)CC1 [MMV688703] | 74.84 | 81.84 |  |  | 
Cc1cc2ccccc2n1CC(=O)N1CC(C(=O)N2CCCCC2)Oc2ccccc21 (stereo not shown) [MMV020520] | 108.71 | 127.42 |  |  | 
c1coc(CNc2nc(N3CCCCC3)nc3ccccc23)c1 [MMV676401] | 91.23 | 75.18 |  |  | 
Cc1cc(C(=O)Nc2ccc(-c3ccccc3)cc2)no1 [MMV020152] | 89.71 | 108.81 |  |  | 
O=C(NCc1nnc2n1CCCCC2)c1ccc(-c2ccc(F)cc2)o1 [MMV688796] | 88.65 | 91.91 |  |  | 
CCOc1ccc(-c2nc(NC(=O)CS(=O)(=O)c3ccccc3)sc2C)cc1 [MMV007638] | 57.66 | 52.58 |  |  | 
c1ccc(Oc2ccc(-c3cc(N4CCNCC4)[nH]n3)cc2)cc1 [MMV687706] | 85.99 | 75.35 |  |  | 
O=C(NCc1ccco1)N1CCN(Cc2ccc(Cl)s2)CC1 [MMV688555] | 63.56 | 83.23 |  |  | 
Cc1ccc(-c2nc(CN(Cc3ccccn3)C(C)C)cs2)o1 [MMV1088520] | 70.72 | -3.27 |  |  | 
Cc1cccc(NC(=O)c2cc(S(=O)(=O)N(C)c3ccc(F)cc3)ccc2Cl)n1 [MMV676528] | 77.13 | 57.74 |  |  | 
CC(=O)NC[C@H]1CN(c2ccc(N3CCSCC3)c(F)c2)C(=O)O1 [MMV688756, Sutezolid, reference compound] |  |  | 88.9 | 64.5 | 
N=C(N)c1ccc(-c2cc(-c3ccccc3)on2)cc1 [MMV688514] | 40.80 | 34.58 |  |  | 
O=C(NC1CCN(c2ccnc3ccccc23)C1)c1cccc(C(F)(F)F)c1 (stereo not shown) [MMV023388] | 84.10 | 76.22 |  |  | 
COc1nc2ccc(Br)cc2cc1[C@@H](c1ccccc1)[C@@](O)(CCN(C)C)c1cccc2ccccc12 [MMV689758, Bedaquiline, reference compound] |  |  | 94.9 | 45.4 | 
CCOC(=O)c1cc(-c2csc(Nc3c(C)cc(C)cc3C)n2)on1 [MMV676461] | 79.84 | 54.88 |  |  | 
Cc1cc(C)c2cc(C(=O)NC3CCCCCCC3)[nH]c2c1 [MMV687146] | 98.04 | 84.77 |  |  | 
CCc1nc2ccc(C(=O)NCc3ccc4c(c3)OCO4)cn2c1N(C)Cc1cccs1 [MMV407539] | 104.77 | 70.84 |  |  | 
CC1=Nc2ccc(Cl)cc2C(O)(c2ccc(C)cc2)N1CCN1CCCCC1 (stereo not shown) [MMV688279] | 70.45 | 75.33 |  |  | 

SMILES | Relative Bioluminescence (%) (2 µM compound) | Relative Bioluminescence (%) (10 µM compound) | viability at 2 µM (2 µM compound) [%] | viability at 10 µM (10 µM compound) [%] | EC50 [nM]
CC(Oc1ccccc1)C(=O)Nc1nc(-c2ccccn2)cs1 (stereo not shown) [MMV676411] | 48.75 | -0.81 |  |  | 
CO[C@@H](C(=O)N1Cc2[nH]nc(NC(=O)c3ccc(N4CCN(C)CC4)cc3)c2C1)c1ccccc1 [MMV676600] | 110.66 | 114.36 |  |  | 
Nc1nc(N)c2c3c(sc2n1)CN(Cc1ccccc1)CC3 [MMV688345] | 105.25 | 69.94 |  |  | 
O=C(NCCc1c[nH]c2ccccc12)c1cc2ccccc2oc1=O [MMV676539] | 54.78 | 62.48 |  |  | 
Cc1cccc(-c2nc(Nc3ccncn3)c3sccc3n2)n1 [MMV688122] | 61.39 | 16.72 |  |  | 
CCc1nn(C)c(C(=O)NCc2ccc(Oc3ccc(C)cc3)cc2)c1Cl [MMV688934, Tolfenpyrad] |  |  | 68.5 | 68.1 | 
COC(=O)C1=C(C)NC(C)=C(C(=O)OC(C)C)C1c1cccc2nonc12 (stereo not shown) [MMV001493, Isradipine, reference compound] |  |  | 130 | 89.6 | 
O=C(C1CCN(c2nnnn2-c2ccccc2)CC1)N1CCc2ccccc2C1 [MMV009135] | 83.57 | 73.86 |  |  | 
O=C([C@@H](c1ccc(Cl)cc1)c1cccnc1)N1CCN(c2ccc(C(F)(F)F)cc2)CC1 [MMV689244] | 23.97 | 0.66 |  |  | 
CCc1ccc(S(=O)(=O)Nc2cc(CN3CCN(CCC(C)C)CC3)ccc2C)cc1 [MMV688124] | 85.13 | 56.21 |  |  | 
CC1=NN(c2nc3ccccc3s2)C(=O)C1Cc1cccc2ccccc12 (stereo not shown) [MMV676558] | -0.86 | -0.77 |  |  | 470
COc1ccc(-c2cnc3cnc(-c4cccc(OC(C)C)c4)cn23)cc1 [MMV688270] | 58.63 | 51.88 |  |  | 
CC(C)(C)OC(=O)N1CCN(c2nccc(-c3ccc(-c4ccc(Cl)cc4)s3)n2)CC1 [MMV688416] | 76.11 | 66.54 |  |  | 
Cc1nc(-c2ccccn2)nc(N(C)CCc2ccccc2)c1Cl [MMV658988] | 32.93 | -2.26 |  |  | 
CO/C=C(/C(=O)OC)c1ccccc1Oc1cc(Oc2ccccc2C#N)ncn1 [MMV021057, Azoxystrobin] | 62.63 | 55.66 |  |  | 
COc1ccc(-c2nnc3ccc(-c4cccc(C(C)C)c4)cn23)cc1OC [MMV688313] | 55.91 | 18.47 |  |  | 
Cc1nn(C(=O)Nc2cccc(C(F)(F)F)c2)c(C)c1Sc1ncccn1 [MMV688552] | 71.00 | 47.85 |  |  | 
Brc1cncc(-c2cc(NCCCn3ccnc3)nc(-c3ccccc3)n2)c1 [MMV661713] | 76.01 | 83.31 |  |  | 
